In US6288265A, “Phloroglucidic acid and derivatives as antibacterial agents” (National Science Council, priority 1999, dated 2001):
≈ marks a conversion by molar mass, not a printed value. Entries after “also recorded” stand apart in the source; their conditions may differ. Read-outs that look alike come from different tables or passages of the source.

Key:
S. aureus FDA 209P = test: Minimum inhibitory concentration, agar dilution, S. aureus FDA 209P; assay type: cell-based, Staphylococcus aureus FDA 209P; settings: for MIC: Staphylococcus aureus, FDA209P, agar dilution, average of duplicate determinations; for antibacterial activity in words, S. aureus FDA 209P: compared with corresponding phloroglucides
Method: (§1) Determination of Minimum Inhibitory Concentrations. The screening experiments in vitro were carried out for antibacterial activities of the phloroglucide analogs II-VII, XII-XIV, bifunctional cephalosporins VIII and IX, as well as 7-(phloroglucidamido)cephalosporins X and XI. Cephalosporins XV and XVI were used as the reference compounds. The lowest concentrations of antibiotics needed for prevention of visible growth of microorganisms; reported as the average values of duplicate determinations. Minimum inhibitory concentrations (MIC) values obtained by use of an agar dilution method whereby organisms were deposited onto medicated agar plates by the replication device of Steers et al [Steers, F. et al. Antibiot. Chemother. 1959, 9, 307].

S. aureus 95 = test: Minimum inhibitory concentration, agar dilution, S. aureus 95; assay type: cell-based, Staphylococcus aureus 95; settings: for activity against β-lactamase producing microorganisms, in words: i.e., S. aureus 95
Method: as §1

C. albicans = test: Minimum inhibitory concentration, agar dilution, C. albicans; assay type: cell-based; settings: Candida albicans, read-out: Minimum Inhibitory Concentration (MIC), C. albicans
Method: as §1

Ps. aerureus 1101-75 = test: Minimum inhibitory concentration, agar dilution, Ps. 1101-75; assay type: cell-based, Pseudomonas aeruginosa
Method: as §1

PS. aerureus 18S-H = test: Minimum inhibitory concentration, agar dilution, Ps. 18S-H; assay type: cell-based, Pseudomonas aeruginosa 18S-H; settings: Pseudomonas aeruginosa, 18SH, read-out: Minimum Inhibitory Concentration (MIC), PS. aerureus 18S-H
Method: as §1

[1] = system: pathogenic microorganisms; test: Antibacterial activity in vitro (statements in words); assay type: cell-based
Method: as §1

[2] = molecular target: T1, β-lactamase of S. aureus 95 (Staphylococcus aureus, UniProt P00807); test: Minimum protective concentration against β-lactamase of S. aureus 95; assay type: biochemical; settings: protection of chromogenic cephem indicator from hydrolysis within 40 min, average of duplicates
T1 construct: chromogenic cephalosporin (nitrocefin type) hydrolysis
T1 sequence (P00807 25-281): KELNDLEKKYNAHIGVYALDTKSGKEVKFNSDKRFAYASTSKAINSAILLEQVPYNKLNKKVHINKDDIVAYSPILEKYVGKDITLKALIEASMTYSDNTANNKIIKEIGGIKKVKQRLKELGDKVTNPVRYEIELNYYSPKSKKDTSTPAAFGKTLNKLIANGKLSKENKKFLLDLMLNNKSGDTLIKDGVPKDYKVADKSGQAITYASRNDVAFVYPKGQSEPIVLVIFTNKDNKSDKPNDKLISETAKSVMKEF
Description: (§2) Determination of Minimum Protective Concentrations. The β-lactamase inhibitory properties of cephalosporin-phloroglucide esters VIII and IX as well as 7-(phloroglucidamido)cephalosporins X and XI were studied. Cephalosporins XV and XVI as well as clavulanic acid (XVII) were used in vitro as the reference compound. The average values of duplicate determinations and the ability of compounds to inhibit the hydrolysis of 3-[E-(2,4-dinitro)styryl]-(6R,7R)-7-(2-thienylacetamido)-3-cephem-4-carboxylic acid by β-lactamases from S. aureus 95 and Ps. aeruginosa 18S-H. Minimum protective concentrations (MPC) values were determined by the procedure of O'Callaghan ct al. [O'Callaghan C. H. ct al. Antimicrob. Agents Chemother. 1972, 1, 283] and are the lowest concentrations of β-lactams needed to protect the indicator from hydrolysis by β-lactamases under standard test conditions within 40 min. The hydrolysis of indicator was evidenced by the appearance of a distinct red color.

[3] = system: β-lactamase of PS. aeruginosa 18S-H; test: Minimum protective concentration against β-lactamase of Ps. aeruginosa 18S-H; assay type: biochemical; settings: protection of chromogenic cephem indicator from hydrolysis within 40 min, average of duplicates
Description: as §2

[4] = Stability in the absence of β-lactamases in phosphate buffer solution; assay type: physicochemical; settings: 37° C., pH 6.5
[5] = system: β-lactamases of S. aureus 95 and Ps. aeruginosa 18S-H; test: Behaviour towards β-lactamases (statements in words); assay type: biochemical
Description: as §2

[6] = Staphylococcus aureus, 95, agar dilution, average of duplicates, β-lactamase-producing, methicillin resistant organism, read-out: Minimum Inhibitory Concentration (MIC), S. aureus 95
[7] = agar dilution, average of duplicate determinations
[8] = Pseudomonas aeruginosa, 110175, agar dilution, average of duplicate determinations, read-out: Minimum Inhibitory Concentration (MIC), Ps. aerureus 1101-75

SMILES	MIC (S. aureus FDA 209P) [µg/mL]	MIC (S. aureus 95; [6]) [µg/mL]	MIC (C. albicans; [7]) [µg/mL]	MIC (Ps. aerureus 1101-75; [8]) [µg/mL]	MIC (PS. aerureus 18S-H) [µg/mL]	antibacterial activity in words [1]	Minimum Protective Concentration (MPC), β-lactamase of S. aureus 95 [2] [µg/mL]	Minimum Protective Concentration (MPC), β-lactamase of PS. aeruginosa 18S-H [3] [µg/mL]	β-lactam ring destructed (time) [4] [h]	hydrolysis by / stability towards β-lactamases, in words [5]	β-lactamase inhibitory property, in words [5]	antibacterial activity in words, S. aureus FDA 209P (S. aureus FDA 209P)	MIC (S. aureus 95; Staphylococcus aureus, 95, read-out: Minimum Inhibitory Concentration (MIC), S. aureus 95) [µg/mL]	activity against β-lactamase producing microorganisms, in words (S. aureus 95)	MIC (C. albicans) [µg/mL]	MIC (Ps. aerureus 1101-75; Pseudomonas aeruginosa, 110175, read-out: Minimum Inhibitory Concentration (MIC), Ps. aerureus 1101-75) [µg/mL]
CNC(=O)c1cccc(C(=O)c2cc(Cl)cc(C(=O)c3ccccc3O)c2O)c1O [VII]	18.1 (≈ 42.6 µM)	17.8 (≈ 41.7 µM)	120 (≈ 281 µM)	6.03 (≈ 14.2 µM)	8.32 (≈ 19.5 µM)	lower efficacy than phloroglucides (II) and (III) as well as the bifunctional cephalosporins (VIII) and (IX)										
O=C(O)[C@H]1/C(=C/CO)O[C@@H]2CC(=O)N21 [XVII, clavulanic acid, reference compound]							0.38	3.00	≤ 13							
CC(=O)OCC1=C(C(=O)O)N2C(=O)[C@@H](NC(=O)c3cccc(Cc4cc(Cl)cc(Cc5ccccc5O)c4O)c3O)[C@H]2SC1 [X, 7-{3-[5-Chloro-2-hydroxy-3-(2-hydroxybenzyl)benzyl]-2-hydroxy-benzamido}cephalosporanic Acid]	0.35 (≈ 0.548 µM)	0.28 (≈ 0.438 µM)	28.3 (≈ 44.3 µM)	0.28 (≈ 0.438 µM)	0.45 (≈ 0.704 µM)	notable antibacterial activity; also recorded: potent phloroglucide-like antibacterial activity	95.20	99.78		stability towards β-lactamases	did not exhibit notable β-lactamase inhibitory property					
O=C(COc1ccccc1)N[C@@H]1C(=O)N2C(C(=O)O)=C(COC(=O)c3cccc(Cc4cc(Cl)cc(Cc5ccccc5O)c4O)c3O)CS[C@H]12 [VIII, 3-{3-[5-Chloro-2-hydroxy-3-(2-hydroxybenzyl)benzyl]-2-hydroxy-benzoyloxymethyl}-7-phenoxyacetamido-3-cephem-4-carboxylic Acid]	0.41 (≈ 0.561 µM)	1.2 (≈ 1.64 µM)	5.86 (≈ 8.01 µM)	0.98 (≈ 1.34 µM)	1.24 (≈ 1.7 µM)	broadened spectrum of antibacterial activity in vitro; also recorded: less activity against other pathogenic microorganisms; also recorded: phloroglucide-like antibacterial activity	7.08	6.74		underwent hydrolysis to liberate their phloroglucidc components		greater antibacterial activity than the corresponding phloroglucides (II) and (III) against S. aureus FDA 209P				
O=C(COc1ccccc1)N[C@@H]1C(=O)N2C(C(=O)O)=C(COC(=O)c3cccc(C(=O)c4cc(Cl)cc(C(=O)c5ccccc5O)c4O)c3O)CS[C@H]12 [IX, 3-{3-[5-Chloro-2-hydroxy-3-(2-hydroxybenzoyl)benzoyl]-2-hydroxy-benzoyloxymethyl}-7-phenoxyacetamido-3-cephem-4-carboxylic Acid]	0.9 (≈ 1.19 µM)	2.1 (≈ 2.77 µM)	6.47 (≈ 8.52 µM)	1.37 (≈ 1.8 µM)	3.13 (≈ 4.12 µM)		4.81	5.98		underwent hydrolysis to liberate their phloroglucidc components		greater antibacterial activity than the corresponding phloroglucides (II) and (III) against S. aureus FDA 209P				
O=C(O)c1cccc(Cc2cc(Cl)cc(Cc3ccccc3O)c2O)c1O [II, 2-(3-Carboxy-2-hydroxybenzyl)-6-(2-hydroxybenzyl)-4-chlorophenol]	0.86 (≈ 2.23 µM)	0.43 (≈ 1.12 µM)	1.43 (≈ 3.72 µM)	0.02 (≈ 0.052 µM)	0.1 (≈ 0.26 µM)	more potent antimicrobial activity than that of the model phloroglucide (XXI)										
COC(=O)c1cccc(Cc2cc(Cl)cc(Cc3ccccc3O)c2O)c1O [IV]	2.98 (≈ 7.47 µM)	4.65 (≈ 11.7 µM)	117 (≈ 294 µM)	1.25 (≈ 3.13 µM)	1.56 (≈ 3.91 µM)	lower efficacy than phloroglucides (II) and (III) as well as the bifunctional cephalosporins (VIII) and (IX)										
CC(=O)OCC1=C(C(=O)O)N2C(=O)[C@@H](NC(=O)COc3ccccc3)[C@H]2SC1 [XV, reference compound]	0.7 (≈ 1.72 µM)				> 145		1.35	0.97		susceptible to hydrolysis by β-lactamases			> 145	did not show significant activity	> 145	> 145
O=C(O)c1cccc(Cc2cc(Cl)cc(Cc3cccc(C(=O)O)c3O)c2O)c1O [XIII, reference compound]	3.25 (≈ 7.58 µM)	4.15 (≈ 9.68 µM)	16.5 (≈ 38.5 µM)	0.86 (≈ 2.01 µM)	1.32 (≈ 3.08 µM)											
COC(=O)c1cccc(C(=O)c2cc(Cl)cc(C(=O)c3ccccc3O)c2O)c1O [V]	14.7 (≈ 34.4 µM)	15.3 (≈ 35.9 µM)	125 (≈ 294 µM)	5.78 (≈ 13.5 µM)	4.3 (≈ 10.1 µM)	lower efficacy than phloroglucides (II) and (III) as well as the bifunctional cephalosporins (VIII) and (IX)										
CO/N=C(\C(=O)N[C@@H]1C(=O)N2C(C(=O)O)=C(COC(C)=O)CS[C@H]12)c1csc(N)n1 [XVI, reference compound]	1.7 (≈ 3.73 µM)	40.6 (≈ 89.1 µM)	> 145	69.9 (≈ 153 µM)	135 (≈ 296 µM)		2.72	1.03		susceptible to hydrolysis by β-lactamases				did not show significant activity		
CNC(=O)c1cccc(Cc2cc(Cl)cc(Cc3ccccc3O)c2O)c1O [VI]	7.35 (≈ 18.5 µM)	6.63 (≈ 16.7 µM)	114 (≈ 287 µM)	3.28 (≈ 8.24 µM)	4.7 (≈ 11.8 µM)	lower efficacy than phloroglucides (II) and (III) as well as the bifunctional cephalosporins (VIII) and (IX)										
CC(=O)OCC1=C(C(=O)O)N2C(=O)[C@@H](NC(=O)c3cccc(C(=O)c4cc(Cl)cc(C(=O)c5ccccc5O)c4O)c3O)[C@H]2SC1 [XI, 7-{3-[5-Chloro-2-hydroxy-3-(2-hydroxybenzoyl)benzoyl]-2-hydroxy-benzamido}cephalosporanic Acid]	0.78 (≈ 1.17 µM)	0.45 (≈ 0.675 µM)	14.2 (≈ 21.3 µM)	0.79 (≈ 1.18 µM)	0.38 (≈ 0.57 µM)	notable antibacterial activity	88.68	93.45		stability towards β-lactamases	did not exhibit notable β-lactamase inhibitory property					
O=C(O)c1cccc(C(=O)c2cc(Cl)cc(C(=O)c3cccc(C(=O)O)c3O)c2O)c1O [XIV, reference compound]	18.2 (≈ 40 µM)	22.2 (≈ 48.6 µM)	19.1 (≈ 41.9 µM)	2.54 (≈ 5.56 µM)	3.06 (≈ 6.7 µM)											
Oc1ccccc1Cc1cc(Cl)cc(Cc2ccccc2O)c1O [XII, reference compound]	1.2 (≈ 3.52 µM)	0.58 (≈ 1.7 µM)	2.06 (≈ 6.04 µM)	0.07 (≈ 0.205 µM)	0.18 (≈ 0.528 µM)											
O=C(O)c1cccc(C(=O)c2cc(Cl)cc(C(=O)c3ccccc3O)c2O)c1O [III, 2-(3-Carboxy-2-hydroxybenzoyl)-6-(2-hydroxybenzoyl)-4-chlorophenol]	3.67 (≈ 8.89 µM)	0.98 (≈ 2.37 µM)	3.7 (≈ 8.96 µM)	0.17 (≈ 0.412 µM)	0.26 (≈ 0.63 µM)	its antimicrobial property decreased; also recorded: In comparison with dicarboxylic acid derivative (XV), mono-carboxylic acid (III) however exhibited greater potency; also recorded: lower efficacy than phenolic acid (II) and phenol (XII) against pathogenic microorganisms										
